Test results: patent US9469650B2, “Melampomagnolide B derivatives” (BOARD OF TRUSTEES OF THE UNIVERSITY OF ARKANSAS, priority 2013, dated 2016)

What was measured:
HOP-62 = assay: panel of 60 human tumor cell lines, growth inhibition (Non-Small Cell Lung Cancer)
SW-620 = assay: panel of 60 human tumor cell lines, growth inhibition (Colon Cancer); settings: for GI50: SW-620, SW-620; for Percent Growth: SW-620
DU-145 = assay: panel of 60 human tumor cell lines, growth inhibition (Prostate Cancer)
LOX IMVI = assay: panel of 60 human tumor cell lines, growth inhibition (Melanoma)
CAKI-1 = assay: panel of 60 human tumor cell lines, growth inhibition (Renal Cancer)
U251 = assay: panel of 60 human tumor cell lines, growth inhibition (CNS Cancer); settings: for Percent Growth: U251
A498 = assay: panel of 60 human tumor cell lines, growth inhibition (Renal Cancer)
NCI/ADR-RES = assay: panel of 60 human tumor cell lines, growth inhibition (Ovarian Cancer)
PC-3 = assay: panel of 60 human tumor cell lines, growth inhibition (Prostate Cancer)
NCI-H522 = assay: panel of 60 human tumor cell lines, growth inhibition (Non-Small Cell Lung Cancer)
SF-268 = assay: panel of 60 human tumor cell lines, growth inhibition (CNS Cancer)
HS 578T = assay: panel of 60 human tumor cell lines, growth inhibition (Breast Cancer); settings: for Percent Growth: HS 578T
OVCAR-5 = assay: panel of 60 human tumor cell lines, growth inhibition (Ovarian Cancer)
NCI-H226 = assay: panel of 60 human tumor cell lines, growth inhibition (Non-Small Cell Lung Cancer)
786-0 = assay: panel of 60 human tumor cell lines, growth inhibition (Renal Cancer)
M14 = assay: panel of 60 human tumor cell lines, growth inhibition (Melanoma)
COLO 205 = assay: panel of 60 human tumor cell lines, growth inhibition (Colon Cancer)

C=C1C(=O)O[C@H]2[C@H]1CC/C(COC(=O)NCCc1ccccn1)=C\CC[C@@]1(C)O[C@@H]21 [JVM 61, ((1aR,7aS,10aS,10bS,E)-1a-methyl-8-methylene-9-oxo-1a,2,3,6,7,7a,8,9,10a,10b-decahydrooxireno[2′,3′:9,10]cyclodeca[1,2-b]furan-5-yl)methyl-(2-(pyridin-2-yl)ethyl)carbamate]
Percent Growth (HOP-62; HOP-62, Log10 Concentration −4.0): −65%
Percent Growth (HOP-62; HOP-62, Log10 Concentration −5.0): 91%
Percent Growth (HOP-62; HOP-62, Log10 Concentration −6.0): 108%
Percent Growth (HOP-62; HOP-62, Log10 Concentration −7.0): 102%
Percent Growth (HOP-62; HOP-62, Log10 Concentration −8.0): 99%
GI50 (HOP-62; Homo sapiens, HOP-62): 18.4 µM
CC50 (HOP-62; Homo sapiens, HOP-62, read-out: LC50): 79.7 µM
IC (TGI) (HOP-62; Homo sapiens, HOP-62, read-out: TGI): 38.3 µM
GI50 (SW-620; Homo sapiens): 3.13 µM
GI50 (SW-620; Homo sapiens, 5-dose assay): 3.13 µM
CC50 (SW-620; Homo sapiens, SW-620, read-out: LC50): 54.5 µM
IC (TGI) (SW-620; Homo sapiens, SW-620, read-out: TGI): 12.3 µM
Percent Growth (SW-620; Log10 Concentration −4.0): −70%
Percent Growth (SW-620; Log10 Concentration −5.0): 7%
Percent Growth (SW-620; Log10 Concentration −6.0): 92%
Percent Growth (SW-620; Log10 Concentration −7.0): 105%
Percent Growth (SW-620; Log10 Concentration −8.0): 109%
Percent Growth (DU-145; DU-145, Log10 Concentration −4.0): −87%
Percent Growth (DU-145; DU-145, Log10 Concentration −5.0): 26%
Percent Growth (DU-145; DU-145, Log10 Concentration −6.0): 97%
Percent Growth (DU-145; DU-145, Log10 Concentration −7.0): 108%
Percent Growth (DU-145; DU-145, Log10 Concentration −8.0): 102%
GI50 (DU-145; Homo sapiens, DU-145): 4.59 µM
CC50 (DU-145; Homo sapiens, DU-145, read-out: LC50): 47 µM
IC (TGI) (DU-145; Homo sapiens, DU-145, read-out: TGI): 16.9 µM
GI50 (LOX IMVI; Homo sapiens): 4.96 µM
GI50 (LOX IMVI; Homo sapiens, 5-dose assay): 4.96 µM
CC50 (LOX IMVI; Homo sapiens, read-out: LC50): 58.2 µM
IC (TGI) (LOX IMVI; Homo sapiens, read-out: TGI): 19.4 µM
Percent Growth (LOX IMVI; Log10 Concentration −4.0): −75%
Percent Growth (LOX IMVI; Log10 Concentration −5.0): 30%
Percent Growth (LOX IMVI; Log10 Concentration −6.0): 96%
Percent Growth (LOX IMVI; Log10 Concentration −7.0): 102%
Percent Growth (LOX IMVI; Log10 Concentration −8.0): 99%
Percent Growth (CAKI-1; CAKI-1, Log10 Concentration −4.0): −83%
Percent Growth (CAKI-1; CAKI-1, Log10 Concentration −5.0): 6%
Percent Growth (CAKI-1; CAKI-1, Log10 Concentration −6.0): 88%
Percent Growth (CAKI-1; CAKI-1, Log10 Concentration −7.0): 93%
Percent Growth (CAKI-1; CAKI-1, Log10 Concentration −8.0): 99%
GI50 (CAKI-1; Homo sapiens, CAKI-1): 2.88 µM
CC50 (CAKI-1; Homo sapiens, CAKI-1, read-out: LC50): 42.8 µM
IC (TGI) (CAKI-1; Homo sapiens, CAKI-1, read-out: TGI): 11.7 µM
GI50 (U251; Homo sapiens, U-251): 12.5 µM
CC50 (U251; Homo sapiens, U-251, read-out: LC50): 55.6 µM
IC (TGI) (U251; Homo sapiens, U-251, read-out: TGI): 25.4 µM
Percent Growth (U251; Log10 Concentration −4.0): −89%
Percent Growth (U251; Log10 Concentration −5.0): 65%
Percent Growth (U251; Log10 Concentration −6.0): 93%
Percent Growth (U251; Log10 Concentration −7.0): 91%
Percent Growth (U251; Log10 Concentration −8.0): 97%
Percent Growth (A498; A498, Log10 Concentration −4.0): −97%
Percent Growth (A498; A498, Log10 Concentration −5.0): 55%
Percent Growth (A498; A498, Log10 Concentration −6.0): 87%
Percent Growth (A498; A498, Log10 Concentration −8.0): 87%
GI50 (A498; Homo sapiens, A498): 16.8 µM
CC50 (A498; Homo sapiens, A498, read-out: LC50): 49.1 µM
IC (TGI) (A498; Homo sapiens, A498, read-out: TGI): 25.1 µM
GI50 (NCI/ADR-RES; Homo sapiens): 20.1 µM
CC50 (NCI/ADR-RES; Homo sapiens, read-out: LC50): > 100 µM
IC (TGI) (NCI/ADR-RES; Homo sapiens, read-out: TGI): 54.7 µM
Percent Growth (NCI/ADR-RES; Log10 Concentration −4.0): −30%
Percent Growth (NCI/ADR-RES; Log10 Concentration −5.0): 85%
Percent Growth (NCI/ADR-RES; Log10 Concentration −6.0): 106%
Percent Growth (NCI/ADR-RES; Log10 Concentration −7.0): 106%
Percent Growth (NCI/ADR-RES; Log10 Concentration −8.0): 105%
GI50 (PC-3; Homo sapiens, PC-3): 15.6 µM
CC50 (PC-3; Homo sapiens, PC-3, read-out: LC50): 76.8 µM
IC (TGI) (PC-3; Homo sapiens, PC-3, read-out: TGI): 35.7 µM
Percent Growth (PC-3; PC-3, Log10 Concentration −4.0): −67%
Percent Growth (PC-3; PC-3, Log10 Concentration −5.0): 83%
Percent Growth (PC-3; PC-3, Log10 Concentration −6.0): 97%
Percent Growth (PC-3; PC-3, Log10 Concentration −7.0): 95%
Percent Growth (PC-3; PC-3, Log10 Concentration −8.0): 98%
GI50 (NCI-H522; Homo sapiens, NCI-H522): 1.64 µM
CC50 (NCI-H522; Homo sapiens, NCI-H522, read-out: LC50): 9.29 µM
IC (TGI) (NCI-H522; Homo sapiens, NCI-H522, read-out: TGI): 3.9 µM
Percent Growth (NCI-H522; NCI-H522, Log10 Concentration −4.0): −69%
Percent Growth (NCI-H522; NCI-H522, Log10 Concentration −5.0): −54%
Percent Growth (NCI-H522; NCI-H522, Log10 Concentration −6.0): 76%
Percent Growth (NCI-H522; NCI-H522, Log10 Concentration −7.0): 96%
Percent Growth (NCI-H522; NCI-H522, Log10 Concentration −8.0): 95%
GI50 (SF-268; Homo sapiens, SF-268): 16.2 µM
CC50 (SF-268; Homo sapiens, SF-268, read-out: LC50): 71.7 µM
IC (TGI) (SF-268; Homo sapiens, SF-268, read-out: TGI): 34 µM
Percent Growth (SF-268; SF-268, Log10 Concentration −4.0): −72%
Percent Growth (SF-268; SF-268, Log10 Concentration −5.0): 82%
Percent Growth (SF-268; SF-268, Log10 Concentration −6.0): 102%
Percent Growth (SF-268; SF-268, Log10 Concentration −7.0): 109%
Percent Growth (SF-268; SF-268, Log10 Concentration −8.0): 106%
Percent Growth (HS 578T; Log10 Concentration −4.0): −25%
Percent Growth (HS 578T; Log10 Concentration −5.0): 28%
Percent Growth (HS 578T; Log10 Concentration −6.0): 94%
Percent Growth (HS 578T; Log10 Concentration −7.0): 96%
Percent Growth (HS 578T; Log10 Concentration −8.0): 98%
GI50 (HS 578T; Homo sapiens, Hs-578T): 4.66 µM
CC50 (HS 578T; Homo sapiens, Hs-578T, read-out: LC50): ≥ 100 µM
IC (TGI) (HS 578T; Homo sapiens, Hs-578T, read-out: TGI): 33.9 µM
GI50 (OVCAR-5; Homo sapiens, OVCAR-5): 10.2 µM
CC50 (OVCAR-5; Homo sapiens, OVCAR-5, read-out: LC50): 49.5 µM
IC (TGI) (OVCAR-5; Homo sapiens, OVCAR-5, read-out: TGI): 22.5 µM
Percent Growth (OVCAR-5; OVCAR-5, Log10 Concentration −4.0): −94%
Percent Growth (OVCAR-5; OVCAR-5, Log10 Concentration −5.0): 51%
Percent Growth (OVCAR-5; OVCAR-5, Log10 Concentration −6.0): 96%
Percent Growth (OVCAR-5; OVCAR-5, Log10 Concentration −7.0): 97%
Percent Growth (OVCAR-5; OVCAR-5, Log10 Concentration −8.0): 107%
GI50 (NCI-H226; Homo sapiens, NCI-H226): 14.1 µM
CC50 (NCI-H226; Homo sapiens, NCI-H226, read-out: LC50): 81.3 µM
IC (TGI) (NCI-H226; Homo sapiens, NCI-H226, read-out: TGI): 33.8 µM
Percent Growth (NCI-H226; NCI-H226, Log10 Concentration −4.0): −62%
Percent Growth (NCI-H226; NCI-H226, Log10 Concentration −5.0): 70%
Percent Growth (NCI-H226; NCI-H226, Log10 Concentration −6.0): 91%
Percent Growth (NCI-H226; NCI-H226, Log10 Concentration −7.0): 92%
Percent Growth (NCI-H226; NCI-H226, Log10 Concentration −8.0): 94%
Percent Growth (786-0; 786-0, Log10 Concentration −4.0): −93%
Percent Growth (786-0; 786-0, Log10 Concentration −5.0): 15%
Percent Growth (786-0; 786-0, Log10 Concentration −6.0): 96%
Percent Growth (786-0; 786-0, Log10 Concentration −7.0): 101%
Percent Growth (786-0; 786-0, Log10 Concentration −8.0): 101%
GI50 (786-0; Homo sapiens, 786-0): 3.7 µM
CC50 (786-0; Homo sapiens, 786-0, read-out: LC50): 39.8 µM
IC (TGI) (786-0; Homo sapiens, 786-0, read-out: TGI): 13.8 µM
GI50 (M14; Homo sapiens, M14): 5.58 µM
CC50 (M14; Homo sapiens, M14, read-out: LC50): 66.7 µM
IC (TGI) (M14; Homo sapiens, M14, read-out: TGI): 21.6 µM
Percent Growth (M14; M14, Log10 Concentration −4.0): −68%
Percent Growth (M14; M14, Log10 Concentration −5.0): 34%
Percent Growth (M14; M14, Log10 Concentration −6.0): 97%
Percent Growth (M14; M14, Log10 Concentration −7.0): 102%
Percent Growth (M14; M14, Log10 Concentration −8.0): 100%
Percent Growth (COLO 205; COLO 205, Log10 Concentration −4.0): −79%
Percent Growth (COLO 205; COLO 205, Log10 Concentration −5.0): 3%
Percent Growth (COLO 205; COLO 205, Log10 Concentration −6.0): 107%
Percent Growth (COLO 205; COLO 205, Log10 Concentration −7.0): 108%
Percent Growth (COLO 205; COLO 205, Log10 Concentration −8.0): 104%
GI50 (COLO 205; Homo sapiens, COLO 205): 3.54 µM
CC50 (COLO 205; Homo sapiens, COLO 205, read-out: LC50): 44.6 µM
IC (TGI) (COLO 205; Homo sapiens, COLO 205, read-out: TGI): 11 µM
